Laboratory results published in patent publication US20260217712A1, “SOLID STATE FORMS OF MNK INHIBITORS” (4E Therapeutics, Inc., priority 2023, published 2026).
Where “and” joins values, the source holds several entries; their conditions need not be identical. Equal entries are not always repeated. Structures can show the parent of a compound that is named as a salt.

Tests used:
Assay type in all cases: physicochemical
[1] = Static storage at 40° C./75% RH, XRPD and HPLC post storage; conditions: 7 days
[2] = as above; conditions: for stability to storage at 40° C./75% RH (in words): 40° C./75% RH (elevated temperature and humidity); for HPLC purity post storage at 40° C./75% RH / XRPD post storage at 40° C./75% RH: 7 days
Procedure: Purity analysis was performed on an Agilent HP1100/Infinity II 1260 series system equipped with a diode array detector and using OpenLAB software. The full method details are provided below:
Poorly Crystalline Structure (I) (from Lot A, Free Form Pattern 1, 30 mg) was dissolved in 50 volumes of THF:Water 9:1 at 60° C. in 13 vials, stirring at 500 RPM (small amount of debris present). The solutions were then treated with 1.1 molar equivalents (90/180 μL) of selected counter-ions (Table 7). The resulting solutions were then cooled down to 5° C. at 0.1° C./min and were held at this temperature for 2 days. The suspensions were filtered and dried under suction for 20 min. The gummed sample was left with the cap off to promote crystallization. All solids obtained were initially analyzed by XRPD and stored in glass HPLC vials for subsequent analysis.
Any solids obtained were analyzed by XRPD, ^1H NMR, HPLC, TGA, DSC, XRPD post storage at 40° C./75% RH after 7 days & IC if necessary. Additional microscopy techniques (PLM & HSM) were used to complement the above analysis where appropriate.

[3] = Competitive slurries of Pattern 3 and Pattern 11, XRPD; conditions: for XRPD after 7 days / XRPD after 17 days: competitive slurry, solvent and temperature per sample; for XRPD after 7 days: 20 vol
Procedure: A solid mixture of Structure (I) Pattern 3 (from Lot B, 300 mg) and Pattern 11 (Sample 35-1, 300 mg) was mixed for 3 hours using a turbula mixer.
The solid mixture (30 mg) was suspended in solvent (dried with molecular sieves, 600 μL, 20 vol) and either stirred in the fridge, shaken at RT or 55° C. After 7 days, an aliquot of each suspension was analyzed by XRPD. Samples that were still a mixture of forms were placed back into fridge/shakers for a further 10 days and re-analyzed (results shown in Table 36).
Competitive slurry experiments at 55° C., along with one at 5° C., were repeated using a saturated solution as the solvent mixture to minimize dissolution that may have occurred at temperatures other than room temperature.
A saturated solution of THF/Water (9:1) (5 mL) with Structure (I) (from Lot B) was equilibrated at 55° C. overnight in a shaker. The solution was filtered using 0.45 μm nylon filter before use.
A solid mixture of Pattern 3 and Pattern 11 (30 mg) was suspended in the saturated solution (600 μL, 20 vol) and either stirred in the fridge (5° C.) or shaken at 55° C. After 1 day, aliquots of the suspensions were analyzed by XRPD. Both samples were placed back into fridge/shaker. After a total of 11 days, the samples were removed from fridge/shaker. Sample 38-2 was filtered before XRPD, Sample 38-1 was pipetted onto the XRPD holder and allowed to dry before analysis (solid passed through filter).

[4] = High temperature solubility assessment; set-up: key: T = turbid solution; X = suspension; conditions: for observation at 60° C.: 30 mg in 50 volumes of the sample's solvent; for observation at 70° C. / observation at 80° C. / observation at 85° C.: 50 volumes
Procedure: Due to low solubility observed in the experiments of Example 2, a second solubility assessment of Structure (I) from Lot A was carried out using higher temperatures closer to the boiling points of the selected solvent systems (Table 10). Once at temperature, phosphoric acid or a base was added to either promote formation of a phosphate or Na/K salt.
Structure (I) (from Lot A, Free Form Pattern 1, 30 mg) was weighed into 6 HPLC vials and a stirrer bar added to each one. 50 volumes of different solvents were added to the samples according to Table 10 and the samples heated incrementally on a Polar Bear heating block, stirring at 400 RPM. Observations were noted as the temperature was increased, holding at each temperature for 10 minutes.

Cc1cc(Nc2cc(N)ncn2)c(=O)n2c1C(=O)NC21CCC2(CC2)CC1 [HCl Pattern 1]
XRPD post storage at 40° C./75% RH ([1]; listed as 22-1): Unchanged
stability to storage at 40° C./75% RH (in words) ([2]; listed as Chloride Pattern 1): remained stable by XRPD & HPLC
HPLC purity post storage at 40° C./75% RH ([2]; listed as 22-1): 99.3%

Cc1cc(Nc2cc(N)ncn2)c(=O)n2c1C(=O)NC21CCC2(CC2)CC1 [FUM Pattern 1]
XRPD post storage at 40° C./75% RH ([1]; listed as 9-10): Fumarate Pattern 1
change of chemical purity on storage at 40° C./75% RH (in words) [2]: slight uplift
stability to storage at 40° C./75% RH (in words) [2]: stable to storage
HPLC purity post storage at 40° C./75% RH ([2]; listed as 9-10): 98.8%

Cc1cc(Nc2cc(N)ncn2)c(=O)n2c1C(=O)NC21CCC2(CC2)CC1 [Pattern 2]
HPLC purity post storage at 40° C./75% RH ([2]; listed as 9-12): 98.8%

Cc1cc(Nc2cc(N)ncn2)c(=O)n2c1C(=O)NC21CCC2(CC2)CC1 [Pattern 36-5]
XRPD after 7 days [3]: Pattern 11

Cc1cc(Nc2cc(N)ncn2)c(=O)n2c1C(=O)NC21CCC2(CC2)CC1 [Pattern 10-1]
observation at 60° C. [4]: X
observation at 70° C. [4]: X

Cc1cc(Nc2cc(N)ncn2)c(=O)n2c1C(=O)NC21CCC2(CC2)CC1 [Fumarate Pattern 2]
XRPD post storage at 40° C./75% RH ([1]; listed as 22-4): FUM P2 (additional peaks lost),
XRPD post storage at 40° C./75% RH [2]: loss of the additional peaks
HPLC purity post storage at 40° C./75% RH ([2]; listed as 22-4): 99.2%

Cc1cc(Nc2cc(N)ncn2)c(=O)n2c1C(=O)NC21CCC2(CC2)CC1 [Pattern 36-2]
XRPD after 7 days [3]: Pattern 11

Cc1cc(Nc2cc(N)ncn2)c(=O)n2c1C(=O)NC21CCC2(CC2)CC1 [Pattern 5]
XRPD post storage at 40° C./75% RH ([1]; listed as 30-2): transition completed and 7 days: Change in form-Pattern 3

Cc1cc(Nc2cc(N)ncn2)c(=O)n2c1C(=O)NC21CCC2(CC2)CC1 [TOS Pattern 1]
XRPD post storage at 40° C./75% RH [2]: large loss in crystallinity
HPLC purity post storage at 40° C./75% RH ([2]; listed as 9-4): 99.3%

Cc1cc(Nc2cc(N)ncn2)c(=O)n2c1C(=O)NC21CCC2(CC2)CC1 [HBr Pattern 1]
XRPD post storage at 40° C./75% RH ([1]; listed as 9-1): XRPD-HBr Pattern 1
change of chemical purity on storage at 40° C./75% RH (in words) [2]: slight uplift in purity
stability to storage at 40° C./75% RH (in words) ([2]; listed as 9-1): behavior but not stable to storage
XRPD post storage at 40° C./75% RH [2]: remained HBr Pattern 1
HPLC purity post storage at 40° C./75% RH ([2]; listed as 9-1): 98.7% purity

Cc1cc(Nc2cc(N)ncn2)c(=O)n2c1C(=O)NC21CCC2(CC2)CC1 [Pattern 36-15]
XRPD after 7 days [3]: Patterns 3 and 11
XRPD after 17 days [3]: Pattern 11

Cc1cc(Nc2cc(N)ncn2)c(=O)n2c1C(=O)NC21CCC2(CC2)CC1 [Pattern 10-6]
observation at 60° C. [4]: T
observation at 70° C. [4]: T

Cc1cc(Nc2cc(N)ncn2)c(=O)n2c1C(=O)NC21CCC2(CC2)CC1 [Pattern 36-4]
XRPD after 7 days [3]: Pattern 11

Cc1cc(Nc2cc(N)ncn2)c(=O)n2c1C(=O)NC21CCC2(CC2)CC1 [Tartrate Pattern 1]
XRPD post storage at 40° C./75% RH ([1]; listed as 9-9): pattern retained.
stability to storage at 40° C./75% RH (in words) [2]: stable to storage
HPLC purity post storage at 40° C./75% RH ([2]; listed as 9-9): 98.1% purity. Tartrate

Cc1cc(Nc2cc(N)ncn2)c(=O)n2c1C(=O)NC21CCC2(CC2)CC1 [Pattern 10-7]
observation at 60° C. [4]: T
observation at 70° C. [4]: T

Cc1cc(Nc2cc(N)ncn2)c(=O)n2c1C(=O)NC21CCC2(CC2)CC1 [Pattern 10-3]
observation at 60° C. [4]: X
observation at 70° C. [4]: X
observation at 80° C. [4]: X
observation at 85° C. [4]: X

Cc1cc(Nc2cc(N)ncn2)c(=O)n2c1C(=O)NC21CCC2(CC2)CC1 [CIT Pattern 1]
XRPD post storage at 40° C./75% RH ([1]; listed as 9-11): Citrate Pattern 1
HPLC purity post storage at 40° C./75% RH ([2]; listed as 9-11): 98.8%

Cc1cc(Nc2cc(N)ncn2)c(=O)n2c1C(=O)NC21CCC2(CC2)CC1 [Pattern 36-14]
XRPD after 7 days [3]: Patterns 3 and 11
XRPD after 17 days [3]: Patterns 3 and 11

Cc1cc(Nc2cc(N)ncn2)c(=O)n2c1C(=O)NC21CCC2(CC2)CC1 [HCl Pattern 4]
stability to storage at 40° C./75% RH (in words) [2]: instability to storage
HPLC purity post storage at 40° C./75% RH ([2]; listed as 13-2): frit are not present. 95.7% purity

Cc1cc(Nc2cc(N)ncn2)c(=O)n2c1C(=O)NC21CCC2(CC2)CC1 [Pattern 36-1]
XRPD after 7 days [3]: Pattern 11

Cc1cc(Nc2cc(N)ncn2)c(=O)n2c1C(=O)NC21CCC2(CC2)CC1 [Pattern 36-12]
XRPD after 7 days [3]: Pattern 11

Cc1cc(Nc2cc(N)ncn2)c(=O)n2c1C(=O)NC21CCC2(CC2)CC1 [Pattern 38-1]
XRPD after 1 day ([3]; slurry in saturated THF/Water (9:1) solution): Patterns 3 and 11 +

Cc1cc(Nc2cc(N)ncn2)c(=O)n2c1C(=O)NC21CCC2(CC2)CC1 [Pattern 36-7]
XRPD after 7 days [3]: Pattern 11

Cc1cc(Nc2cc(N)ncn2)c(=O)n2c1C(=O)NC21CCC2(CC2)CC1 [Pattern 36-3]
XRPD after 7 days [3]: Patterns 3 and 11
XRPD after 17 days [3]: Patterns 3 and 11

Cc1cc(Nc2cc(N)ncn2)c(=O)n2c1C(=O)NC21CCC2(CC2)CC1 [Pattern 10-4]
observation at 60° C. [4]: X
observation at 70° C. [4]: X
observation at 80° C. [4]: X
observation at 85° C. [4]: X

Cc1cc(Nc2cc(N)ncn2)c(=O)n2c1C(=O)NC21CCC2(CC2)CC1 [Pattern 10-2]
observation at 60° C. [4]: X
observation at 70° C. [4]: X
observation at 80° C. [4]: X
observation at 85° C. [4]: X

Cc1cc(Nc2cc(N)ncn2)c(=O)n2c1C(=O)NC21CCC2(CC2)CC1 [PHO Pattern 2]
HPLC purity post storage at 40° C./75% RH [2]: crystallinity. 97.0% purity observed.
XRPD post storage at 40° C./75% RH [2]: lost a significant amount of crystallinity

Cc1cc(Nc2cc(N)ncn2)c(=O)n2c1C(=O)NC21CCC2(CC2)CC1 [Pattern 36-11]
XRPD after 7 days [3]: Pattern 11 + extra

Cc1cc(Nc2cc(N)ncn2)c(=O)n2c1C(=O)NC21CCC2(CC2)CC1 [Pattern 36-13]
XRPD after 7 days [3]: Patterns 3 and 11
XRPD after 17 days [3]: Patterns 3 and 11

Cc1cc(Nc2cc(N)ncn2)c(=O)n2c1C(=O)NC21CCC2(CC2)CC1 [Pattern 10-5]
observation at 60° C. [4]: X
observation at 70° C. [4]: X
observation at 80° C. [4]: X
observation at 85° C. [4]: X

Cc1cc(Nc2cc(N)ncn2)c(=O)n2c1C(=O)NC21CCC2(CC2)CC1 [Pattern 36-6]
XRPD after 7 days [3]: Pattern 11

Cc1cc(Nc2cc(N)ncn2)c(=O)n2c1C(=O)NC21CCC2(CC2)CC1 [BES Pattern 1]
stability to storage at 40° C./75% RH (in words) [2]: not stable to storage
HPLC purity post storage at 40° C./75% RH ([2]; listed as 9-6): 98.8%

Cc1cc(Nc2cc(N)ncn2)c(=O)n2c1C(=O)NC21CCC2(CC2)CC1 [Pattern 22-8]
HPLC purity post storage at 40° C./75% RH [2]: 99.4%
XRPD post storage at 40° C./75% RH [2]: SUL P2

Cc1cc(Nc2cc(N)ncn2)c(=O)n2c1C(=O)NC21CCC2(CC2)CC1 [Pattern 10-8]
observation at 60° C. [4]: T
observation at 70° C. [4]: T
